Measured values from patent US20080009511A1, “Cancer treatment with compounds inhibiting PKC alpha” (priority 2004, published 2008).

Key:
[1] = system: A431 human epidermoid carcinoma cells; test: Cell viability assay (trypan blue dye exclusion), viable cells counted at day 6; assay type: cell-based; conditions: 10 micromoles; for Treated (cell number × 10^5): about 4×10^4 cells seeded, untreated 5.4 ± 0.4; for % inhibiton: growth vs untreated
Protocol: (§1) The following cancer cells were maintained in Dulbecco's modified Eagle medium (DMEM) supplemented with 10 percent bovine calf serum. Cells were seeded for 24 hours. Then they were treated with PKC inhibitors or left untreated. The cells were then collected periodically and evaluated using trypan blue dye exclusion to assess viability using the method described by C Y Chen, et al., in J. Biol. Chem. 273:16700-16709. Cultures containing about 4×10^4 cells were treated with 5 micromoles of Gö7874 (except that PC3 prostate cancer cells were treated with 10 micromoles) and the viable cells were counted at day 6. […] Cultures containing about 4×10^4 cells were treated with or without 10 micromoles of Gö6850 and the viable cells were counted at day 6. […] Cultures containing about 4×10^4 cells were treated with or without 10 micromoles of NGIC-I and the viable cells were counted at day 6. […] Cultures containing about 4×10^4 cells were treated with or without 10 micromoles of Ro31-7549 and the viable cells were counted at day 6. […] Cultures containing about 4×10^4 cells were treated with or without 10 micromoles of Ro31-8220 and the viable cells were counted at day 6. […] Cultures containing about 4×10^4 cells were treated with or without 10 micromoles of Ro31-8425 and the viable cells were counted at day 6. […] Cultures containing about 4×10^4 cells were treated with or without 10 micromoles of Ro31-0432 and the viable cells were counted at day 6.

[2] = system: AGS human gastric cancer cells; test: as above; assay type: cell-based; conditions: 10 micromoles; for Treated (cell number × 10^5): about 4×10^4 cells seeded, untreated 2.4 ± 0.3; for % inhibiton: growth vs untreated
Protocol: as §1

[3] = system: H460 human lung cancer cells; test: as above; assay type: cell-based; conditions: 10 micromoles; for Treated (cell number × 10^5): about 4×10^4 cells seeded, untreated 2.4 ± 0.2; for % inhibiton: growth vs untreated
Protocol: as §1

[4] = system: HT29 human colon cancer cells; test: as above; assay type: cell-based; conditions: 10 micromoles; for Treated (cell number × 10^5): about 4×10^4 cells seeded, untreated 3.8 ± 0.4; for % inhibiton: growth vs untreated
Protocol: as §1

[5] = system: Hela human cervical cancer cells; test: as above; assay type: cell-based; conditions: 10 micromoles; for Treated (cell number × 10^5): about 4×10^4 cells seeded, untreated 3.4 ± 0.4; for % inhibiton: growth vs untreated
Protocol: as §1

[6] = system: HepG2 human liver cancer cells; test: as above; assay type: cell-based; conditions: 10 micromoles; for Treated (cell number × 10^5): about 4×10^4 cells seeded, untreated 4.2 ± 0.4; for % inhibiton: growth vs untreated
Protocol: as §1

[7] = system: Jurkat cells (a human acute T-cell leukemia cell line); test: as above; assay type: cell-based; conditions: 10 micromoles; for Treated (cell number × 10^5): about 4×10^4 cells seeded, untreated 8.8 ± 0.4; for % inhibiton: growth vs untreated
Protocol: as §1

[8] = system: MDA-MB-468 human breast cancer cells; test: as above; assay type: cell-based; conditions: 10 micromoles; for Treated (cell number × 10^5): about 4×10^4 cells seeded, untreated 6.1 ± 0.4; for % inhibiton: growth vs untreated
Protocol: as §1

[9] = system: NBT-II human bladder cancer cells; test: as above; assay type: cell-based; conditions: 10 micromoles; for Treated (cell number × 10^5): about 4×10^4 cells seeded, untreated 2.9 ± 0.4; for % inhibiton: growth vs untreated
Protocol: as §1

[10] = system: PANC-1 human pancreatic carcinoma cells; test: as above; assay type: cell-based; conditions: 10 micromoles; for Treated (cell number × 10^5): about 4×10^4 cells seeded, untreated 2.1 ± 0.3; for % inhibiton: growth vs untreated
Protocol: as §1

[11] = system: PC3 human prostate cancer cells; test: as above; assay type: cell-based; conditions: 10 micromoles; for Treated (cell number × 10^5): about 4×10^4 cells seeded, untreated 7.1 ± 0.3; for % inhibiton: growth vs untreated
Protocol: as §1

U251 human glioma cells = test: as above; assay type: cell-based; conditions: 10 micromoles; for Treated (cell number × 10^5): about 4×10^4 cells seeded, untreated 9.6 ± 0.5; for % inhibiton: growth vs untreated
Protocol: as §1

KB oral cancer cells = test: as above; assay type: cell-based, human; conditions: 10 micromoles; for Treated (cell number × 10^5): about 4×10^4 cells seeded, untreated 3.8 ± 0.4; for % inhibiton: growth vs untreated
Protocol: as §1

human cancer cells = test: Cell viability assay, summary over the panel of cancer cells; assay type: cell-based; conditions: 10 micromoles; day 6; cell lines not named as going to apoptosis
Protocol: The following cancer cells were maintained in Dulbecco's modified Eagle medium (DMEM) supplemented with 10 percent bovine calf serum. Cells were seeded for 24 hours. Then they were treated with PKC inhibitors or left untreated. The cells were then collected periodically and evaluated using trypan blue dye exclusion to assess viability using the method described by C Y Chen, et al., in J. Biol. Chem. 273:16700-16709. Cultures containing about 4×10^4 cells were treated with or without 10 micromoles of Gö6850 and the viable cells were counted at day 6. […] Cultures containing about 4×10^4 cells were treated with or without 10 micromoles of NGIC-I and the viable cells were counted at day 6. […] Cultures containing about 4×10^4 cells were treated with or without 10 micromoles of Ro31-7549 and the viable cells were counted at day 6. […] Cultures containing about 4×10^4 cells were treated with or without 10 micromoles of Ro31-8220 and the viable cells were counted at day 6. […] Cultures containing about 4×10^4 cells were treated with or without 10 micromoles of Ro31-8425 and the viable cells were counted at day 6. […] Cultures containing about 4×10^4 cells were treated with or without 10 micromoles of Ro31-0432 and the viable cells were counted at day 6.

| SMILES | Treated (cell number × 10^5) [1] | % inhibiton [1] [%] | Treated (cell number × 10^5) [2] | % inhibiton [2] | Treated (cell number × 10^5) [3] | % inhibiton [3] [%] | Treated (cell number × 10^5) [4] | % inhibiton [4] [%] | cells that went to apoptosis upon treatment [5] | Treated (cell number × 10^5) [5] | % inhibiton [5] | Treated (cell number × 10^5) [6] | % inhibiton [6] | Treated (cell number × 10^5) [7] | % inhibiton [7] [%] | cells that went to apoptosis upon treatment [8] | Treated (cell number × 10^5) [8] | % inhibiton [8] | Treated (cell number × 10^5) [9] | % inhibiton [9] | other results |
| --- | --- | --- | --- | --- | --- | --- | --- | --- | --- | --- | --- | --- | --- | --- | --- | --- | --- | --- | --- | --- | --- |
| Cn1cc(C2=C(c3cn(CCCN)c4ccccc34)C(=O)NC2=O)c2ccccc21 [Ro31-7549, 2-[1-3(Aminopropyl)indol-3-yl]-3(1-methyl-1H-indol-3-yl)maleimide, Acetate] | 2.8 × 10^5 | 48 | 1.7 × 10^5 | 30% | 0.5 × 10^5 | 81 | 1.7 × 10^5 | 63 | significant number | 6 × 10^5 | * (indicates the inhibitor causes significant cell death, and cell number is less than originally seeded cell number.) | 0 × 10^5 | * (indicates the inhibitor causes significant cell death, and cell number is less than originally seeded cell number.) | 0.7 × 10^5 | 92 | significant number | 0.2 ± 0.05 × 10^5 | * (indicates the inhibitor causes significant cell death, and cell number is less than originally seeded cell number.) | 0.6 ± 0.1 × 10^5 | 80% | cells that went to apoptosis upon treatment [6]: all; Treated (cell number × 10^5) [10]: 1.2 × 10^5; % inhibiton [10]: 43%; Treated (cell number × 10^5) [11]: 2.7 × 10^5; % inhibiton [11]: 62%; Treated (cell number × 10^5) (U251 human glioma cells): 1.9 × 10^5; % inhibiton (U251 human glioma cells): 80%; cells that went to apoptosis upon treatment (KB oral cancer cells): all; Treated (cell number × 10^5) (KB oral cancer cells): 0 × 10^5; % inhibiton (KB oral cancer cells): * (indicates the inhibitor causes significant cell death, and cell number is less than originally seeded cell number.); inhibition of growth in contrast to untreated cells, range over the other treated cancer cells (human cancer cells): 43-92% |
| Cn1cc(C2=C(c3cn(CCCSC(=N)N)c4ccccc34)C(=O)NC2=O)c2ccccc21 [Ro31-8220] | 2.1 × 10^5 | 60 | 0 × 10^5 | * (indicates the inhibitor causes significant cell death, and cell number is less than originally seeded cell number.) | 0.4 × 10^5 | 85 | 0.6 × 10^5 | 85 | significant number | 6.0 × 10^5 | * (indicates the inhibitor causes significant cell death, and cell number is less than originally seeded cell number.) | 0.4 × 10^5 | 90% | 0.5 × 10^5 | 94 | significant number | 0.2 ± 0.05 × 10^5 | * (indicates the inhibitor causes significant cell death, and cell number is less than originally seeded cell number.) | 0 × 10^5 | * (indicates the inhibitor causes significant cell death, and cell number is less than originally seeded cell number.) | cells that went to apoptosis upon treatment [2]: all; cells that went to apoptosis upon treatment [9]: all; cells that went to apoptosis upon treatment [10]: all; Treated (cell number × 10^5) [10]: 0 × 10^5; % inhibiton [10]: * (indicates the inhibitor causes significant cell death, and cell number is less than originally seeded cell number.); Treated (cell number × 10^5) [11]: 2.7 × 10^5; % inhibiton [11]: 62%; Treated (cell number × 10^5) (U251 human glioma cells): 1.4 × 10^5; % inhibiton (U251 human glioma cells): 85%; cells that went to apoptosis upon treatment (KB oral cancer cells): all; Treated (cell number × 10^5) (KB oral cancer cells): 0 × 10^5; % inhibiton (KB oral cancer cells): * (indicates the inhibitor causes significant cell death, and cell number is less than originally seeded cell number.); inhibition of growth in contrast to untreated cells, range over the other treated cancer cells (human cancer cells): 60-94% |
